Test results from patent US20250074897A1, “PYRIDAZINONES AS PARP7 INHIBITORS” (Ribon Therapeutics, Inc., priority 2019, published 2025).

biological target: T1, PARP7 (TIPARP) (Homo sapiens, UniProt Q7Z3E1); test: Enzymatic assay for inhibition of PARP7: TR-FRET displacement of biotinylated Probe A from the TIPARP active site; format: binding; conditions: 6 nM TIPARP, 2 nM Probe A, 25° C., 30 min incubation with test compound
T1 sequence (Q7Z3E1 1-657): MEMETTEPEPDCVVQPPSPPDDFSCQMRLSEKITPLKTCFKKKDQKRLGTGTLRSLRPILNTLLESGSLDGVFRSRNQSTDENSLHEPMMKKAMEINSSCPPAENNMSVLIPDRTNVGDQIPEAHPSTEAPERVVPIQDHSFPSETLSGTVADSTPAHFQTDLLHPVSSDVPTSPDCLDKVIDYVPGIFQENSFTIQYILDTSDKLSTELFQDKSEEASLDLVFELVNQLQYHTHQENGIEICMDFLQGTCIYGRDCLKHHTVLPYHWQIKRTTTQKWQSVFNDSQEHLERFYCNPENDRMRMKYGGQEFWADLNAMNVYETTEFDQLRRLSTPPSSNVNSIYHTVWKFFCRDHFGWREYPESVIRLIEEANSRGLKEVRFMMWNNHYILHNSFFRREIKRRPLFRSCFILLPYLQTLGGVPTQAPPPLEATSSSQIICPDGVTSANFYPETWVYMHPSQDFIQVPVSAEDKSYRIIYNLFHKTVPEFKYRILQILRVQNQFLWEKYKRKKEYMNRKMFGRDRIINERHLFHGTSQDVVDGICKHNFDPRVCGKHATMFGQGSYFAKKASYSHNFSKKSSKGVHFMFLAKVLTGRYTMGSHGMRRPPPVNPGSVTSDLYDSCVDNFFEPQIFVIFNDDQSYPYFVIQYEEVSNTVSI
Method: Enzymatic Assay for Inhibition of PARP7
Displacement of Probe A, a biotinylated probe binding to the TIPARP active site, was measured using a time-resolved fluorescence energy transfer (TR-FRET) assay. 20 nL of a dose response curve of each test compound was spotted in black 384-well polystyrene proxiplates (Perkin Elmer) using a Mosquito (TTP Labtech). Reactions were performed in a 8 μL volume by adding 6 μL of TIPARP and Probe A in assay buffer (20 mM HEPES pH=8, 100 mM NaCl, 0.1% bovine serum albumin, 2 mM DTT and 0.002% Tween20), incubating with test compound at 25° C. for 30 min, then adding 2 μL of ULight-anti 6xHis and LANCE Eu-W1024 labeled streptavidin (Perkin Elmer). The final concentrations of TIPARP and Probe A were 6 nM and 2 nM, respectively. The final concentration of ULight-anti 6xHis and LANCE Eu-W1024 labeled streptavidin were 4 nM and 0.25 nM, respectively. Reactions were incubated at 25° C. for an additional 30 min, then read on an Envision platereader equipped with a LANCE/DELFIA top mirror (Perkin Elmer) using excitation of 320 nm and emission of 615 nm and […] with a 90 μs delay. The ratio of the 665/615 nm emission were calculated for each well to determine the amount of complex of TIPARP and Probe A in each well. Control wells containing a negative control of 0.25% DMSO vehicle or a positive control of 100 μM 5-(5-(piperidin-4-yloxy)isoindolin-2-yl)-4-(trifluoromethyl)pyridazin-3(2H)-one were used to calculate the % inhibition as described below:
where TRFempd is the TR-FRET ratio from the compound treated well, TRFmin is the TR-FRET ratio from the 5-(5-(piperidin-4-yloxy)isoindolin-2-yl)-4-(trifluoromethyl)pyridazin-3(2H)-one-treated positive control well and TRFmax is the TR-FRET ratio from the DMSO-treated negative control well.
The % inhibition values were plotted as a function of compound concentration and the following 4-parameter fit was applied to derive the IC50 values:
where top and bottom are normally allowed to float, but may be fixed at 100 or 0 respectively in a 3-parameter fit. The Hill Coefficient is normally allowed to float but may also be fixed at 1 in a 3-parameter fit. Y is the % inhibition and X is the compound concentration.

IC50, < 100 nM:
CC[C@@H](COCC(O)C(=O)N1CCN(c2ncc(C(F)(F)F)cn2)CC1)Nc1cn[nH]c(=O)c1C(F)(F)F (stereo partly drawn) [Example 15, 5-(((2S)-1-(2-hydroxy-3-oxo-3-(4-(5-(trifluoromethyl)pyrimidin-2-yl)piperazin-1-yl)propoxy)butan-2-yl)amino)-4-(trifluoromethyl)pyridazin-3(2H)-one]
C[C@@H](COC[C@@H](O)C(=O)N1CCN(c2ncc(Cl)cn2)CC1)Oc1cn[nH]c(=O)c1C(F)(F)F [Example 9A, 5-(((S)-1-((R)-3-(4-(5-chloropyrimidin-2-yl)piperazin-1-yl)-2-hydroxy-3-oxopropoxy)propan-2-yl)oxy)-4-(trifluoromethyl)pyridazin-3(2H)-one]
C[C@@H](COC[C@H](O)C(=O)N1CCN(c2ncc(C(F)(F)F)cn2)CC1)Oc1cn[nH]c(=O)c1C(F)(F)F (single isomer, unassigned) [Example 7B]
O=C(C(O)COC[C@@H]1CCN1c1cn[nH]c(=O)c1C(F)(F)F)N1CCN(c2ncc(C(F)(F)F)cn2)CC1 (stereo partly drawn) [Example 18, 5-((2S)-2-((2-hydroxy-3-oxo-3-(4-(5-(trifluoromethyl)pyrimidin-2-yl)piperazin-1-yl)propoxy)methyl)azetidin-1-yl)-4-(trifluoromethyl)pyridazin-3(2H)-one]
C[C@@H](COC[C@@H](O)C(=O)N1CCN(c2ncc(C(F)(F)F)cn2)CC1)Oc1cn[nH]c(=O)c1C(F)(F)F (single isomer, unassigned) [Example 7A]
O=C([C@H](O)COC[C@H]1c2ccccc2CN1c1cn[nH]c(=O)c1C(F)(F)F)N1CCN(c2ncc(C(F)(F)F)cn2)CC1 (single isomer, unassigned) [Example 17B]
C[C@@H](COC[C@@H](O)C(=O)N1CCN(c2ncc(C(F)(F)F)cn2)CC1)Oc1cn[nH]c(=O)c1Br (single isomer, unassigned) [Example 12A]
C[C@@H](COC[C@@H](O)C(=O)N1CCN(c2ncc(C(F)F)cn2)CC1)Oc1cn[nH]c(=O)c1C(F)(F)F [Example 11A, 5-(((S)-1-((R)-3-(4-(5-(difluoromethyl)pyrimidin-2-yl)piperazin-1-yl)-2-hydroxy-3-oxopropoxy)propan-2-yl)oxy)-4-(trifluoromethyl)pyridazin-3(2H)-one]
